Data reported in PubChem BioAssay (NCI).
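Here, GI50 denotes the concentration required for 50% inhibition of growth. TGI denotes the concentration required for complete inhibition of growth.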

Key:
Assay in all cases: inhibition of tumour cell growth, NCI panel, 384-well format
[1] = tested on: ACHN renal
[2] = tested on: MDA-MB-468 breast
[3] = tested on: COLO 205 colon
[4] = tested on: UACC-257 melanoma
[5] = tested on: RXF 393 renal
[6] = tested on: HS 578T breast
[7] = tested on: NCI/ADR-RES ovarian
[8] = tested on: IGROV1 ovarian
[9] = tested on: SR leukemia
[10] = tested on: NCI-H226 lung
[11] = tested on: U251 glioblastoma
[12] = tested on: NCI-H322M lung
[13] = tested on: OVCAR-3 ovarian
[14] = tested on: MCF7 breast
[15] = tested on: UACC-62 melanoma
[16] = tested on: SF-268 CNS
[17] = tested on: MDA-MB-231 breast
[18] = tested on: M14 melanoma
[19] = tested on: MOLT-4 leukemia
[20] = tested on: SNB-19 CNS
[21] = tested on: RPMI-8226 leukemia
[22] = tested on: UO-31 renal
[23] = tested on: HT29 colon
[24] = tested on: SK-MEL-5 melanoma
[25] = tested on: OVCAR-5 ovarian
[26] = tested on: SW-620 colon
[27] = tested on: HOP-62 NSCLC
[28] = tested on: A549 NSCLC
[29] = tested on: MALME-3M melanoma
[30] = tested on: SF-295 CNS
[31] = tested on: HOP-92 NSCLC
[32] = tested on: NCI-H460 NSCLC
[33] = tested on: 786-0 renal
[34] = tested on: NCI-H23 lung
[35] = tested on: CAKI-1 renal
[36] = tested on: HCC-2998 colon
[37] = tested on: DU-145 prostate
[38] = tested on: SF-539 CNS
[39] = tested on: SK-OV-3 ovarian
[40] = tested on: KM12 colon
[41] = tested on: TK-10 renal
[42] = tested on: BT-549 breast
[43] = tested on: HCT-15 colon
[44] = tested on: OVCAR-4 ovarian
[45] = tested on: T-47D breast
[46] = tested on: SN12C renal
[47] = tested on: HL-60(TB) leukemia
[48] = tested on: A498 renal
[49] = tested on: MDA-MB-435 melanoma
[50] = tested on: PC-3 prostate
[51] = tested on: SNB-75 CNS
[52] = tested on: SK-MEL-28 melanoma
[53] = tested on: NCI-H522 lung
[54] = tested on: LOX IMVI melanoma
[55] = tested on: HCT-116 colon
[56] = tested on: EKVX NSCLC
[57] = tested on: OVCAR-8 ovarian

Question: What does the source list for Nc1cccc2c1CN(C1CCC(=O)NC1=O)C2=O (centres undefined)?
Answer: GI50 [1]: > 100 µM; TGI [1]: > 100 µM; GI50 [2]: > 100 µM; TGI [2]: > 100 µM; GI50 [3]: > 100 µM; TGI [3]: > 100 µM; GI50 [4]: > 100 µM; TGI [4]: > 100 µM; GI50 [5]: > 100 µM; TGI [5]: > 100 µM; GI50 [6]: > 100 µM; TGI [6]: > 100 µM; GI50 [7]: > 100 µM; TGI [7]: > 100 µM; GI50 [8]: > 100 µM; TGI [8]: > 100 µM; GI50 [9]: > 100 µM; TGI [9]: > 100 µM; GI50 [10]: > 100 µM; TGI [10]: > 100 µM; GI50 [11]: > 100 µM; TGI [11]: > 100 µM; GI50 [12]: > 100 µM; TGI [12]: > 100 µM; GI50 [13]: > 100 µM; TGI [13]: > 100 µM; GI50 [14]: > 100 µM; TGI [14]: > 100 µM; GI50 [15]: > 100 µM; TGI [15]: > 100 µM; GI50 [16]: > 100 µM; TGI [16]: > 100 µM; GI50 [17]: > 100 µM; TGI [17]: > 100 µM; GI50 [18]: > 100 µM; TGI [18]: > 100 µM; GI50 [19]: > 100 µM; TGI [19]: > 100 µM; GI50 [20]: > 100 µM; TGI [20]: > 100 µM; GI50 [21]: > 100 µM; TGI [21]: > 100 µM; GI50 [22]: > 100 µM; TGI [22]: > 100 µM; GI50 [23]: > 100 µM; TGI [23]: > 100 µM; GI50 [24]: > 100 µM; TGI [24]: > 100 µM; GI50 [25]: > 100 µM; TGI [25]: > 100 µM; GI50 [26]: > 100 µM; TGI [26]: > 100 µM; GI50 [27]: > 100 µM; TGI [27]: > 100 µM; GI50 [28]: > 100 µM; TGI [28]: > 100 µM; GI50 [29]: > 100 µM; TGI [29]: > 100 µM; GI50 [30]: > 100 µM; TGI [30]: > 100 µM; GI50 [31]: > 100 µM; TGI [31]: > 100 µM; GI50 [32]: > 100 µM; TGI [32]: > 100 µM; GI50 [33]: > 100 µM; TGI [33]: > 100 µM; GI50 [34]: > 100 µM; TGI [34]: > 100 µM; GI50 [35]: > 100 µM; TGI [35]: > 100 µM; GI50 [36]: > 100 µM; TGI [36]: > 100 µM; GI50 [37]: > 100 µM; TGI [37]: > 100 µM; GI50 [38]: > 100 µM; TGI [38]: > 100 µM; GI50 [39]: > 100 µM; TGI [39]: > 100 µM; GI50 [40]: > 100 µM; TGI [40]: > 100 µM; GI50 [41]: > 100 µM; TGI [41]: > 100 µM; GI50 [42]: > 100 µM; TGI [42]: > 100 µM; GI50 [43]: > 100 µM; TGI [43]: > 100 µM; GI50 [44]: > 100 µM; TGI [44]: > 100 µM; GI50 [45]: > 100 µM; TGI [45]: > 100 µM; GI50 [46]: > 100 µM; TGI [46]: > 100 µM; GI50 [47]: > 100 µM; TGI [47]: > 100 µM; GI50 [48]: > 100 µM; TGI [48]: > 100 µM; GI50 [49]: > 100 µM; TGI [49]: > 100 µM; GI50 [50]: > 100 µM; TGI [50]: > 100 µM; GI50 [51]: > 100 µM; TGI [51]: > 100 µM; GI50 [52]: > 100 µM; TGI [52]: > 100 µM; GI50 [53]: > 100 µM; TGI [53]: > 100 µM; GI50 [54]: > 100 µM; TGI [54]: > 100 µM; GI50 [55]: > 100 µM; TGI [55]: > 100 µM; GI50 [56]: > 100 µM; TGI [56]: > 100 µM; GI50 [57]: > 100 µM; TGI [57]: > 100 µM
